88 compounds from PubChem BioAssay AID489041 (Sanford-Burnham Center for Chemical Genomics, 2010) can be followed below.

Active and inactive are the calls of the source. No rule for the calls is given here.

The assay concerns HEK-293T NF-kB luciferase reporter counterscreen, luminescence. Nature of the assay: inhibitors of HEK-293T NF-kB luciferase – HEK-293T cells, luminescence, counter-screen for T-cell antigen receptor NF-kB inhibitors, dose response (AID 489041).
The term IC50 denotes the concentration needed to halve the response being measured. For `Cc1ccc(N(C)S(=O)(=O)c2ccc(-c3cnc(C4CC4)o3)cc2)cc1`, the half-maximal inhibitory concentration (IC50) is 4.53 µM. Take `CCCC1=Nc2cc(C(=O)NCCCOCC)ccc2Sc2ccccc21`: the IC50 was 0.97 µM. For `CCOc1ccccc1NC(=O)Cn1nnc(C(=O)NCc2ccco2)c1N`, the IC50 was 26.3 µM (inactive). Consider `COc1cc(/C=C2/SC(=Nc3ccc(O)cc3)NC2=O)ccc1O`, for which the IC50 is 3.51 µM. Regarding `CCCC(=O)NC(c1ccc(N(C)C)cc1)c1ccc2cccnc2c1O` (stereo not drawn), the IC50 is > 80 µM (inactive). For `CCCC(=O)NC(c1ccc(OC)cc1)c1ccc2cccnc2c1O` (stereo not drawn), the IC50 was > 80 µM (inactive). Then `Cc1ccc(S(=O)(=O)Nc2cccc(-c3ccc4nncn4n3)c2)cc1`, with 18.4 µM. As to `COc1ccc(CC(=O)Nc2nc(-c3ccc(F)c(F)c3)cs2)cc1OC`, the half-maximal inhibitory concentration (IC50) was 2.87 µM.

Regarding `Oc1ccccc1N=Nc1nc(-c2ccccc2)c(-c2ccccc2)[nH]1`, the half-maximal inhibitory concentration (IC50) is 2.84 µM. Then `Cc1cc(C)c(S(=O)(=O)Nc2ccc3c4c(cccc24)CC3)c(C)c1`, with 1.73 µM; and `O=C(c1cn(Cc2ccccc2)nc1-c1ccccc1)N1CCN(c2ccccn2)CC1`, with > 80 µM (inactive). In the case of `O=C(COc1ccccc1-c1ccccc1)N/N=C/c1cccc2ccccc12`, the IC50 was 8 µM. Then `O=C(Nc1cccc(C(F)(F)F)c1)c1sc(Cl)nc1C(F)(F)F`, with 40.6 µM (inactive); and `CCOC(=O)COc1cccc2c(=O)n(CC(=O)NCc3ccc(F)cc3)ccc12`, with < 0.16 µM.

`COc1cc(C(=O)OCCc2cc3ccccc3c(=O)o2)cc(OC)c1OC`: the half-inhibitory concentration (IC50) is 14.9 µM.

For `CC1(C)C[C@H]2C=C(C=O)[C@]3(C=O)C[C@]3(C)[C@H]2C1`, the IC50 was 31.1 µM (inactive). `CCOC(=O)N/N=C/c1c(C)nn(-c2cccc(C(F)(F)F)c2)c1Cl`: the IC50 is 8.93 µM. For `O=C(Sc1cccc2cccnc12)c1ccccc1Br`, the IC50 was 27.1 µM (inactive).

Consider `O=C(N=Nc1c(O)[nH]c2ccc(Br)cc12)c1ccccc1-n1cccc1`, for which the half-inhibitory concentration (IC50) is 7.76 µM. As to `COc1ccc(C[C@H](N)C(=O)N[C@H]2[C@@H](O)[C@H](n3cnc4c(N(C)C)ncnc43)O[C@@H]2CO)cc1`, the concentration for half-maximal inhibition (IC50) is 2.64 µM. As for `COc1ccc(COC(=O)c2cc([N+](=O)[O-])ccc2N2CCOCC2)cc1F`, the IC50 was 2.29 µM.

As for `COc1ccccc1-c1nnc2n1N=C(c1ccc(O)c(O)c1)CS2`, the half-inhibitory concentration (IC50) is 2.41 µM. `CCOC(=O)COc1cccc2c(=O)n(CC(=O)NCc3ccccc3)ccc12`: the half-inhibitory concentration (IC50) was 0.63 µM.

Regarding `CCCCC(=O)NC(c1ccc(Cl)cc1)c1ccc2cccnc2c1O` (stereo not drawn), the IC50 is > 80 µM (inactive). In the case of `O=c1cc(-c2ccccc2)[nH]c2cc(F)ccc12`, the half-inhibitory concentration (IC50) was 2.62 µM. Consider `COc1ccc2nc(C)cc(N/N=C/c3ccc(F)cc3)c2c1`, for which the IC50 was 22.4 µM (inactive).

For `Cc1nc(Sc2nnnn2C)c2c3c(sc2n1)CCC3`, the IC50 is 31.4 µM (inactive). Consider `COc1ccc(/C=C2/C(=O)OCc3cc(OC)c(OC)cc32)cc1`, for which the 50% inhibitory concentration (IC50) is 12 µM.

As to `CCOc1ccccc1C(=O)Nc1ccc2nc(N3CCN(c4ncccn4)CC3)cc(C)c2c1`, the concentration for half-maximal inhibition (IC50) is 15.2 µM. For the compound `CCC(=O)NC(c1cccs1)c1ccc2cccnc2c1O` (stereo not drawn), the IC50 was 1.61 µM. `COc1cccc(N2CCN(C(=O)c3ccc(CS(=O)c4ccccc4C)o3)CC2)c1` (stereo not drawn): the IC50 was 8.21 µM. For the compound `CC(=O)NC(c1ccc2ccccc2c1)c1ccc2cccnc2c1O` (stereo not drawn), the IC50 was 41.3 µM (inactive).

As for `C[C@]12CC[C@H](O)C[C@H]1CC[C@@H]1[C@@H]2CC[C@]2(C)[C@@H](C3=CC(=O)OC3)CC[C@]12O`, the half-inhibitory concentration (IC50) was < 0.16 µM. In the case of `CCCC(=O)NC(c1ccccc1Cl)c1ccc2cccnc2c1O` (stereo not drawn), the IC50 was > 80 µM (inactive). The result for `COc1cccc(N2CCN(c3ncnc4c3cnn4-c3ccc(C)cc3C)CC2)c1` reads 2.07 µM; that for `CCOC(=O)c1[nH]c(C)c(C(=O)OCC(=O)NC(C)c2ccc(F)cc2)c1C` (stereo not drawn), > 80 µM (inactive); that for `CCN(CC)S(=O)(=O)c1cc(NC(=O)CNc2cccc(S(=O)(=O)N3CCCC3)c2)ccc1C`, 2.52 µM. As for `CCOC(=O)N=Nc1c2ccccc2c2nc3no[nH]c3nc12`, the IC50 was 0.52 µM. Consider `COc1ccc(/C=N/NC(=O)COc2ccccc2-c2ccccc2)cc1`, for which the IC50 was 4.75 µM. As for `Cc1cc(=O)oc2cc(OCC3CC(c4ccccc4Cl)=NO3)ccc12` (stereo not drawn), the IC50 is 5.52 µM. For the compound `COc1cc2c(c(OC)c1OC)-c1ccc(O)cc1[C@@H](NC(C)=O)CC2`, the IC50 was > 80 µM (inactive). Consider `Clc1cccc(Cl)c1/C=N/Nc1c(Cl)cncc1Cl`, for which the IC50 is 36.7 µM (inactive).

With `CCCc1cc(C(=O)N/N=C/c2ccc(CC)s2)c2ccccc2n1`, the IC50 was 2.47 µM. Consider `CCOC(=O)c1[nH]c(C)c(C(=O)Nc2cc(OC)ccc2OC)c1C`, for which the IC50 was > 80 µM (inactive). Then `C[C@@H]1C=CC(=O)O[C@@H]1c1ccc(Cl)cc1`, with 34 µM (inactive); and `CCCCOc1ccc(Br)cc1/C(C)=N/NC1=NCCN1`, with 6.14 µM. Then `CC/C=C/CC(=O)N[C@@H](c1ccccc1)[C@@H](O)C(=O)O[C@H]1C[C@@]2(O)[C@@H](OC(=O)c3ccccc3)C3[C@](C)(C(=O)[C@H](OC(C)=O)C(=C1C)C2(C)C)[C@@H](O)C[C@H]1OC[C@@]31OC(C)=O` (stereo partly drawn), with > 80 µM (inactive). Then `CCN(CC)c1ccc(/C=N/NC(=O)c2cccc(S(=O)(=O)Nc3ccccc3OC)c2)c(O)c1`, with 0.23 µM. `O=C(N[C@@H](Cc1ccccc1)C(=O)CCl)OCc1ccccc1`: the IC50 is 15.9 µM. For `CC(=O)c1ccc(Oc2cc(C)nc(-n3nc(C)cc3C)n2)cc1`, the IC50 is 14.6 µM. Take `CN(C)c1ccc2c(c1)OC(N)=C(C#N)C2c1cccc(F)c1` (stereo not drawn): the IC50 is 1.45 µM. Then `Cc1ccc2c(c1)Oc1ccc(NC(=O)CCl)cc1C(=O)N2`, with 2.71 µM; and `Cc1cccc(N=Nc2ccc(O)c3ncccc23)c1`, with > 80 µM (inactive). For `Cc1ccc(C(=O)c2cc([N+](=O)[O-])ccc2N2CCOCC2)c(C)c1`, the IC50 is 4.92 µM.

Regarding `CCCCCCCCn1c2c(c(=N)c3ccccc31)CCC2`, the half-maximal inhibitory concentration (IC50) is 1.39 µM. For `COc1cc(/C=C/C(=O)c2ccc([N+](=O)[O-])o2)ccc1O`, the IC50 was 7.49 µM.

Regarding `CN1/C(=C\C(=O)C[n+]2ccc3ccccc3c2)C(C)(C)c2ccccc21`, the concentration for half-maximal inhibition (IC50) is 4.62 µM. For the compound `O=C(Nc1ccncc1)C1CCCN(S(=O)(=O)c2cccc3cccnc23)C1` (stereo not drawn), the IC50 is 35.1 µM (inactive). As to `C(=N\Nc1nc2ccccc2s1)/c1ccccn1`, the half-maximal inhibitory concentration (IC50) is 1.45 µM.

As to `O=C(Nc1ccn(Cc2ccccc2F)n1)c1ccc(COc2ccc(Br)cc2)cc1`, the concentration for half-maximal inhibition (IC50) is 1.55 µM. `CCOc1ccccc1C1CC(=O)Nc2cc3c(cc21)OCO3` (stereo not drawn): the IC50 was 6.14 µM.

For the compound `O=c1cc(-c2cccc(F)c2)[nH]c2ccccc12`, the 50% inhibitory concentration (IC50) was 1.05 µM. Then `COc1cccc(N2CCN(C(=O)c3ccc(CS(=O)c4ccccc4Cl)o3)CC2)c1` (stereo not drawn), with 6.1 µM; and `O=C(Nc1ccc(S(=O)(=O)Nc2ccc(F)cc2)cc1)c1ccc(CN2CCOCC2)cc1`, with 5.68 µM; and `CC(=O)c1c(C)[nH]c(C(=O)OCC(=O)Nc2ccc(C)cc2[N+](=O)[O-])c1C`, with 0.79 µM.

As to `CCOc1ccccc1N1CC(O)=C(c2nc3ccccc3s2)C1=N`, the half-maximal inhibitory concentration (IC50) is 8.73 µM. For the compound `CCCCN=C[C@]12CCC(O)CC1(O)CCC1[C@@H]2CC[C@]2(C)[C@H](C3C=CC(=O)O3)CCC12O` (stereo partly drawn), the IC50 was 0.34 µM. The result for `Cc1ccc(-c2cc(-c3ccc(C)cc3)[n+](-c3ccccc3)c(-c3ccc(C)cc3)c2)cc1` reads 1.1 µM. Regarding `CC(=O)c1ccc(N2CCN(S(=O)(=O)c3ccc4c(c3)CC(C)N4C(=O)C3CC3)CC2)cc1` (stereo not drawn), the IC50 is 3.06 µM. The result for `CCCN(CCC)C1=CC(=[N+]2CCCC2)CC(C)(C)C1` reads 2.39 µM; that for `C[C@]12CC[C@H]3[C@@H](CC[C@]4(O)C[C@@H](O)CC[C@]34C=O)[C@@]1(O)CC[C@@H]2C1=CC(=O)OC1`, 0.34 µM; that for `COc1cc(C2c3cc4c(cc3C(OC3OC5COC(c6cccs6)OC5C(O)C3O)C3COC(=O)C23)OCO4)cc(OC)c1O` (stereo not drawn), > 80 µM (inactive). Regarding `CCOc1ccc(-c2[nH]ncc2-c2ccc(OC)c(OC)c2)c(O)c1`, the IC50 was 10.4 µM. Regarding `CC[C@@]1(O)C(=O)OCc2c1cc1n(c2=O)Cc2cc3c(CN(C)C)c(O)ccc3nc2-1`, the IC50 was 29.3 µM (inactive). On to `CCCSc1nnc(Sc2nnnn2-c2ccccc2)s1`, for which the 50% inhibitory concentration (IC50) is 9.43 µM. In the case of `COc1cc(-c2noc(C)c2/C=C/c2cccc([N+](=O)[O-])c2)cc(OC)c1OC`, the IC50 was 9.59 µM.

Regarding `Cc1c(C(=O)OCc2ccccc2)[nH]c2c1C(=O)CC(c1ccco1)C2` (stereo not drawn), the half-maximal inhibitory concentration (IC50) is 10.1 µM. Regarding `CCC(C)(C)c1ccc(OCCCC[n+]2cccc(C)c2C)c(C(C)(C)CC)c1`, the 50% inhibitory concentration (IC50) was 4.01 µM. In the case of `Cc1cccc(N2CCN(C(=O)c3ccc(S(=O)(=O)N(C)c4ccccc4)cc3)CC2)c1C`, the IC50 was 10.5 µM. As to `COc1cc(-c2c(-c3cc(OC)c(OC)c(OC)c3)noc2C)ccc1F`, the concentration for half-maximal inhibition (IC50) is 0.72 µM.

As for `C=CCSc1nc2ccccc2n1C(=O)/C=C/c1cc(OC)c(OC)c(OC)c1`, the IC50 was 21.2 µM (inactive). On to `Brc1ccc2c(c1)C(C1=NCCN1)c1ccccc1CS2` (stereo not drawn), for which the IC50 is > 80 µM (inactive). In the case of `CCOC(=O)CC1CCCCN1C(=O)c1cc(COc2cccc3cnccc23)on1` (stereo not drawn), the IC50 is 1.81 µM. Then `O=c1oc2ccccc2cc1-c1cn(-c2ccccc2)c(=S)[nH]1`, with 4.59 µM; and `CC(=O)O[C@H]1C(=O)[C@@]2(C)C([C@H](OC(=O)c3ccccc3)[C@]3(O)C[C@H](OC(=O)[C@H](O)[C@@H](NC(=O)Cc4ccccc4)c4ccccc4)C(C)=C1C3(C)C)[C@]1(OC(C)=O)CO[C@@H]1C[C@@H]2O` (stereo partly drawn), with 45.6 µM (inactive). As to `CC(C)(C)c1csc(Sc2ccc([N+](=O)[O-])cn2)n1`, the IC50 was 36.1 µM (inactive). As for `COc1ccc(C(NC(=O)C(C)C)c2ccc3cccnc3c2O)cc1` (stereo not drawn), the IC50 was > 80 µM (inactive). Regarding `COc1cc(Nc2ccc(C)cc2)c([N+](=O)[O-])nc1[N+](=O)[O-]`, the concentration for half-maximal inhibition (IC50) is 19.9 µM.
